Literature values in article PMC2692938 (Nuclear medicine and biology, 2009).

System: αvβ3
Settings: selective αvβ3 antagonist

IC50 values: lower nanomolar range
Substance: c(RGDfV)
